Assay [1] deals with rabbit aorta strip contracted with noradrenaline. The experiment in a line: rabbit aorta strip contracted with noradrenaline (in vitro vasorelaxing activity). It is filed as cell-based. Conditions: Oryctolagus cuniculus, concentration causing 50% inhibition of the contraction of the rabbit aorta strip, read-out: Vasodilative activity in vitro IC50. The procedure:
The in vitro vasorelaxing activity was determined by the test of the rabbit aorta strip contracted with noradrenaline. The test was carried out according to the method described by K. Murakami et al., Eur. J. Pharmacol., 141, 195 (1987).
The IC50 values i.e., the concentrations of active substances, causing a 50% inhibition of the contraction of the rabbit strip, were determined.

Assay [2] has as its system Arg-vasopressin induced coronaric spasm in anesthetized Sprague Dawley rats. The experiment in a line: antianginal activity in vivo, Arg-vasopressin-induced coronaric spasm (increase of the T-wave). The settings on record: for ED50: Rattus norvegicus, iv, 4 increasing doses, Arg-vasopressin, read-out: ED50 (i.v.), dose yielding the 50% inhibition of the increase of the T-wave; for % Inhibition of the increase of the T-wave versus the controls: 3 mg/Kg per os, Arg-vasopressin i.v. The procedure: The antianginal activity in vivo was determined on anesthetized Sprague Dawley rats of weight 350-400 g, operating according to the method of M. Leitold et al., Arzeim. Forsch., 36, 1454, (1986). The test was carried out by intravenously administering the animals with one I.U/Kg, equivalent to […] of Arg-vasopressin, thus inducing a coronaric spasm that is reproducible and may be electrocardiographically monitored by an increase of the T-wave. The compounds of the invention were administered by gastric gavage at a dose of 3 mg/Kg one […] before the administration of Arg-vasopressin. The antianginal effect was expressed as the percentage inhibition of the increase of the T-wave versus the controls. Another group of animals were intravenously administered with 4 increasing doses of the compound of the invention to measure their ED50, i.e. the dose yielding the 50% inhibition of the increase of the T-wave.

The conditions of assay [3]: B. W. Horrom et al., J. Org. Chem., 72, 721 (1950); cited from earlier work.

pIC50: −log10 of the molar value.

Usually pIC50 stands for the negative decadic logarithm of the IC50, by convention in mol/L. By ED50 is commonly meant the dose at which the effect has come halfway, by size or by number of responders. Take `Cc1ccc2c(c1)C(=O)N(CCO[N+](=O)[O-])CO2` [Example 2, 2,3-Dihydro-6-methyl-3-(2'-nitrooxyethyl)-4H-1,3-benzoxazin-4-one]: in assay [1], the pIC50 is 8.27. Also, in assay [2], the median effective dose (ED50) is 0.0063 mg/kg.
Regarding `O=C1c2ccccc2OCN1CCCCCO[N+](=O)[O-]` [Example 8, 2,3-Dihydro-3-(5'-nitrooxypentyl)-4H-1,3-benzoxazin-4-one], the pIC50 in assay [1] was 7.72. Moreover, in assay [2], the ED50 was determined as 0.058 mg/kg.
With `Cc1ccc2c(c1)OCN(CCO[N+](=O)[O-])C2=O` [Example 4, 2,3-Dihydro-7-methyl-3-(2'-nitrooxyethyl)-4H-1,3-benzoxazin-4-one], the negative-log IC50 (pIC50) in assay [1] was 7.12. For the same compound, in assay [2], the “% Inhibition of the increase of the T-wave versus the controls” value amounted to 31% and the ED50 is 0.012 mg/kg.
For the compound `O=C1NC(c2ccccc2)Oc2ccccc21` (stereo not shown) [2,3-dihydro-2-phenyl-4H-1,3-benzoxazin-4-one], the analgesic activity entry in assay [3] is listed as “endowed with analgesic activity”.
`O=C1c2ccc(Cl)cc2OCN1CCO[N+](=O)[O-]` [Example 3, 7-Chloro-2,3-dihydro-3-(2'-nitrooxyethyl)-4H-1,3-benzoxazin-4-one]: the pIC50 in assay [1] was 8.20. Further, in assay [2], the “% Inhibition of the increase of the T-wave versus the controls” value came to 31% and the ED50 worked out at 0.011 mg/kg.
Turning to `O=C1c2ccccc2OCN1CCO[N+](=O)[O-]` [Example 1, 2,3-Dihydro-3-(2'-nitrooxyethyl)-4H-1,3-benzoxazin-4-one], the pIC50 in assay [1] was 7.03. In assay [2], the “% Inhibition of the increase of the T-wave versus the controls” value is 55% and the ED50 turned out to be 0.0013 mg/kg.
`COc1ccc2c(c1)OCN(CCO[N+](=O)[O-])C2=O` [Example 9, 2,3-Dihydro-7-methoxy-3-(2'-nitrooxyethyl)-4H-1,3-benzoxazin-4-one]: in assay [1], the pIC50 is 7.85.
Same read-out and setting: the figure for `O=C1c2ccccc2SCN1CCO[N+](=O)[O-]` [Example 10, 3(2'-nitrooxyethyl)-2,3-dihydro-4H-1,3-benzothiazin-4-one] is 7.77.

The record behind these values is US5189034A, “Benzoxazinone and benzothiazinone derivatives endowed with cardiovascular activity” (Italfarmaco S.P.A., priority 1990, dated 1993).
